The values below come from US20130023555A1, “KINASE INHIBITOR WITH IMPROVED SOLUBILITY PROFILE” (Abbott Laboratories, priority 2011, published 2013).

What all share (format): biochemical
The target in one assay is T1, FLT1 (Homo sapiens, UniProt P17948).
T1 construct: His6
T1 sequence (P17948 786-1338 limits assumed): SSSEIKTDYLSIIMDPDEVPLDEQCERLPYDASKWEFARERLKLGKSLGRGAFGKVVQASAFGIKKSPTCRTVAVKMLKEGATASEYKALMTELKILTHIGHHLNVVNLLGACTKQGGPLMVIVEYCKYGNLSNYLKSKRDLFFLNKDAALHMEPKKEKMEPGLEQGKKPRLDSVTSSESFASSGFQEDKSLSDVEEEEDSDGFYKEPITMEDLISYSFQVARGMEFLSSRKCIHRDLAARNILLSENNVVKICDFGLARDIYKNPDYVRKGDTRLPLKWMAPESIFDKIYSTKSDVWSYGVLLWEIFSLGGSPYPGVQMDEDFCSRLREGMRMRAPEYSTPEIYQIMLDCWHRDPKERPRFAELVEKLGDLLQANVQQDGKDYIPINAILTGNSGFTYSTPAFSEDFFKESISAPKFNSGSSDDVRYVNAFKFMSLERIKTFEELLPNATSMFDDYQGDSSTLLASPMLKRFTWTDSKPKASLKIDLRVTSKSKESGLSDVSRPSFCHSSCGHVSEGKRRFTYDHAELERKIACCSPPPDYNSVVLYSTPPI
The assay is described as follows: HTRF in vitro kinase assay, FLT1. The following applies: 1 mM ATP. The procedure: (§1) To determine the activity of the various kinases, a homogenous time-resolved fluorescence (HTRF) in vitro kinase assay was used. (Mathis, G., HTRF(R) Technology. J Biomol Screen, 1999. 4(6): p. 309-314; Alfred J. Kolb, Paul V. Kaplita, David J. Hayes, Young-Whan Park, Christine Pernell, John S. Major and Gerard Mathis, Drug Discovery Today, 1998, 3, 333-342.)
(§2) For example for KDR, cKIT, FLT1, CSF1R and FTL3, purified enzyme was mixed with 0.5 μM N-biotinylated substrate (Biotin-Ahx-[…]-amide (SEQ. ID. 1)), various concentrations of inhibitor in reaction buffer (50 mM HEPES, pH 7.1, 10 mM MgCl2, 2 mM MnCl2, 0.1% BSA and 1 mM DTT, 40 μL final volume), ATP (1 mM final conc.) in a black 384-well plate. […] The quenched reaction was allowed to stand at room temperature for 3 hours and was then read in a time-resolved fluorescence detector (InVision, Perkin-Elmer) at 620 nm and 665 nm sequentially with excitation. The ratio between the signal of 620 nm and 665 nm was used in the calculation of the IC50.

A further assay addresses T2, CSF1R (Homo sapiens, UniProt P07333).
T2 construct: CSF-1R Q547- C972; M-His(6) (N)
T2 sequence (P07333 547-972): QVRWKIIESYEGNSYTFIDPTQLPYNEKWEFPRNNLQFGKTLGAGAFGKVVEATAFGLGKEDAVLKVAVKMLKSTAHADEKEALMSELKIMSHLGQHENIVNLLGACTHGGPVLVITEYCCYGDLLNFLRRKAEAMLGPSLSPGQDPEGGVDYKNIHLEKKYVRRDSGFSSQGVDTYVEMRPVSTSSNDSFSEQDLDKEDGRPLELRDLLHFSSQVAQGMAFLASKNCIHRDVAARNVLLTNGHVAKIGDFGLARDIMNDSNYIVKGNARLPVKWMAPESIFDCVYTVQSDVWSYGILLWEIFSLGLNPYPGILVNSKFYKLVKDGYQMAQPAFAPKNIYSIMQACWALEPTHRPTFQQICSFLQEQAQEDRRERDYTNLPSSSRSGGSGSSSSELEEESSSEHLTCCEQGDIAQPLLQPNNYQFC
The assay can be described thus: HTRF in vitro kinase assay, CSF1R. As to conditions: 1 mM ATP. The procedure: as §1, §2
A general note: TR-FRET usually uses a lanthanide donor and a delayed reading to cut background.

The target of a further assay is T3, FLT3 (Homo sapiens, UniProt P36888).
T3 construct: FLT3 Q569- S993; M-His(6) (N)
T3 sequence (P36888 569-993): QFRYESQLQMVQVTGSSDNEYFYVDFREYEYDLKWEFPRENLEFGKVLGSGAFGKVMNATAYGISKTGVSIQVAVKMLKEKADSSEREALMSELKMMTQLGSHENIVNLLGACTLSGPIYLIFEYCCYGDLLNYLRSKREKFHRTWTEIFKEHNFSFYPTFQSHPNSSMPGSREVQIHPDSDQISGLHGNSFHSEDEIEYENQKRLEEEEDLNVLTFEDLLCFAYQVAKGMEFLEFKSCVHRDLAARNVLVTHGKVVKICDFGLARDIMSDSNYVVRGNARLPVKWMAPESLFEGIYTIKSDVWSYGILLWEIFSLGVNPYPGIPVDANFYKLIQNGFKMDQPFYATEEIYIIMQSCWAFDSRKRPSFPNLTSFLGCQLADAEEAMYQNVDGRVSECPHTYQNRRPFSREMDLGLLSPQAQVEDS
The assay is described as follows: HTRF in vitro kinase assay, FLT3. As to conditions: 1 mM ATP. The procedure: as §1, §2

In the next assay the target is T4, cKIT (Homo sapiens, UniProt P10721).
T4 construct: GST
T4 sequence (P10721 544-976 limits assumed): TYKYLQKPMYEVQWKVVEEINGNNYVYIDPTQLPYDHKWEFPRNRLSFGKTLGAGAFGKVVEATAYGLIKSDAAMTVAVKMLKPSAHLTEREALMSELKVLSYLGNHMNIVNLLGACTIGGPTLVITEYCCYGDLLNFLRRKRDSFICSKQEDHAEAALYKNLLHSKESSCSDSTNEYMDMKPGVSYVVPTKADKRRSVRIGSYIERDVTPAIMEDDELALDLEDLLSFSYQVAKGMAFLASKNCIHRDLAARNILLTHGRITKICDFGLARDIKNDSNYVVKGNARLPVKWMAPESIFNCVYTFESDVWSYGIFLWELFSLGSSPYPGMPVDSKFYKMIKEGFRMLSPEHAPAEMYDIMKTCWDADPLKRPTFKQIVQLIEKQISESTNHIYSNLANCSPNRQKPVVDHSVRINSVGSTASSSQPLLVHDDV
The assay is described as follows: HTRF in vitro kinase assay, cKIT. The following applies: 1 mM ATP. The procedure: as §1
For example for KDR, cKIT, FLT1, CSF1R and FTL3, purified enzyme was mixed with 0.5 μM N-biotinylated substrate (Biotin-Ahx-[…]-amide (SEQ. ID. 1)), various concentrations of inhibitor in reaction buffer (50 mM HEPES, pH 7.1, 10 mM MgCl2, 2 mM MnCl2, 0.1% BSA and 1 mM DTT, 40 μL final volume), ATP (1 mM final conc.) in a black 384-well plate. After 60 minutes incubation at room temperature, the reaction was quenched by addition of a buffered EDTA solution (final approximate concentrations: 30 mM EDTA, 0.1% BSA, 0.1% Triton X-100 and 0.24M KF) and a solution of revelation agents (to give 0.084 ng/well streptavidin-XL-665 (Cis-Bio) and 6.5 ng/well antiphsophotyrosine mAb PT66-K Europium kryptate) was added to the reaction mixture. The quenched reaction was allowed to stand at room temperature for 3 hours and was then read in a time-resolved fluorescence detector (InVision, Perkin-Elmer) at 620 nm and 665 nm sequentially with excitation. The ratio between the signal of 620 nm and 665 nm was used in the calculation of the IC50.

In a further assay the target is T5, Aurora B (Homo sapiens, UniProt Q96GD4).
T5 construct: Active Aurora B enzyme (recombinant residues 1-344)
T5 sequence (Q96GD4 whole entry, the tested form may be a part): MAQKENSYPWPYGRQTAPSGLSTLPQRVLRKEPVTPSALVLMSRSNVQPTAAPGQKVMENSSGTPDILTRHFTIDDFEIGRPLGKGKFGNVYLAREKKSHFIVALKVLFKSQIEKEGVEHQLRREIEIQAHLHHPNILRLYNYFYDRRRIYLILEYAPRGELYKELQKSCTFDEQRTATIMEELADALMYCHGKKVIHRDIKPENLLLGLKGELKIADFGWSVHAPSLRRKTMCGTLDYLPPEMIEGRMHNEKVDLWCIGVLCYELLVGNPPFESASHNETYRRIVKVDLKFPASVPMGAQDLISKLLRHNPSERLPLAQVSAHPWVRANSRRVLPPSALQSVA
T5 sequence (Q9NQS7 803-918 partner limits assumed): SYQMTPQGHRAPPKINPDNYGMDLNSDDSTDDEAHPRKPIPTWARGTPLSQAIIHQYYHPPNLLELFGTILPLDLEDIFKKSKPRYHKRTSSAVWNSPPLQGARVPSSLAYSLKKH
The assay can be described thus: Aurora B enzyme assay (time-resolved fluorescence). The following applies: 1 mM ATP, with INCENP. The procedure: After 1 hour, the reaction was stopped with EDTA and anti-phospho-histone H3 Europium Cryptate (Cis-Bio) and SA-APC (Phycolink, Prozyme) were added to detect the phosphopeptide. The amount of phosphorylation was determined by the time-resolved fluorescence ratio of signals at 665 nm and 615 nm. The IC50's were calculated by an exponential fit of the inhibition values with the inhibitor concentrations using Assay Explorer software.

What is called IC50 is the midpoint of a concentration-inhibition curve. High values mean lower potency, low ones higher potency. In the case of `CNC(=O)c1cnc(N)c2c(-c3ccc(NC(=O)Nc4cccc(C)c4)cc3)csc12` [Example 2, 4-amino-N-methyl-3-(4-{[(3-methylphenyl)carbamoyl]amino}phenyl)thieno[3,2-c]pyridine-7-carboxamide], the half-inhibitory concentration (IC50) turned out to be 2 nM against FLT1; 3 nM against CSF1R; 2 nM on FLT3; 6 nM against cKIT; 1.3 nM against Aurora B.
